Laboratory results reported in paper PMC3231940, “Disposition, metabolism and mass balance of [^14C]apremilast following oral administration” (Xenobiotica; the Fate of Foreign Compounds in Biological …, 2011).
“And” between values parts separate entries of the source, which are not always exact repeats. Identical values can stand only once.

Test: Metabolite profiling by HPLC radiochromatography in plasma, urine and faeces
Assay type: in vivo, human
Procedure: Individual plasma samples collected from all subjects at 0.5, 1, 2.5, 8, 24, 36 and 48 h post-dose were analysed for metabolite profiling. A pooled sample (equal volume from 0.5,1,2.5,8 and 24 h) from subject 1 was also used for metabolite profiling. Three volumes of acetonitrile were added to each sample, followed by mixing and centrifu-gation. The supernatant was removed and the pellet was washed twice with acetonitrile. The combined superna-tants were evaporated to dryness under a stream of nitrogen. The residues were re-suspended in acetonitrile: 1% formic acid in water (1:1), assayed for extraction recovery and analysed for metabolite profiling.
For each subject, urine samples were pooled using an equal percentage by volume of the 0-4, 4-8, 8-12 and 12-24-h samples. The 24-48-h urine sample from each subject and a pool of the 0-168-h urine samples from subject 1 were also analysed for metabolite profiling. Samples were mixed and centrifuged prior to the supernatants being transferred to fresh tubes for metabolite profiling analysis.
Faecal homogenates for metabolite profiling were pooled using an equal percentage by weight to generate two pools (0-48 h and 48-96 h) for each subject. An additional pool (0-168 h) was prepared using the samples collected from subject 1. An aliquot (approximately 6 g) of each pool was extracted with three volumes of acetonitrile; samples were mixed and centrifuged. The supernatant was removed and the pellets were extracted twice with an additional 12 mL of acetonitrile each time. The combined supernatants were evaporated to dryness under a stream of nitrogen and the residue was re-suspended in a small volume (approximately 400 μL) of acetonitrile: 1% formic acid in water (1:1). Samples were assayed for extraction recovery prior to metabolite profiling.
HPLC analysis for metabolite profiling was performed using a Shimadzu LC-10ADVP (Shimadzu Corp., Columbia, MD) or a Waters 2695 Alliance Separation Module (Waters Corp., Milford, MA) with the autosampler set to an ambient temperature of approximately 22°C. ASPD-10A VPUV-Vis Detector or a Waters 996 Photodiode array detector set to 254 nm was used to detect UV absorbance. [^14C]Apremilast and metabolites were separated using a Phenomenex Luna C 18(2) column (150 × 4.6 mm, 3 μm; Phenomenex, Torrance, CA) equipped with a RP-18 guard column (15×3.2 mm, 7 μm) or using an ACE 3 C18 column (150 × 4.6 mm, 3 μm; Advanced Chromatography Technologies, Aberdeen, Scotland) equipped with an ACE 3 guard column (10×3mm, 3 μm). The mobile phases used were 0.4% formic acid in water; pH 3.2 with ammonium hydroxide (mobile phase A) and acetonitrile (mobile phase B). The column temperature was 30°C and the flow rate was 0.7mL/min. The linear gradient was delivered as follows: 0-5 min to 100% A; 5-20 min to 85% A; 20-30 min hold at 85% A; 30-50 min to 65% A; 50-60 min to 60% A; 60-70 min to 50% A; 70-75 min to 0% A; hold at 0% A until 80 min; return to initial conditions over 2 min.
Radioactivity profiles for excreta were determined by radiochromatography using liquid chromatography-accurate radioisotope counting stop-flow system (LC-ARC; AIM Research Company, Wilmington, DE). Radioactivity was detected using a β-Ram Radioflow detector (IN/US Systems, Brandon, FL) equipped with a 1300-μL liquid cell. Liquid scintillation cocktail and column eluate were mixed at a ratio of 2.5:1. Radioactive peaks were quantified using LC-ARC data handling software. Plasma radioactivity profiles were determined by collecting the column eluate into 96-well Deepwell LumaPlates at a rate of 0.25 min/fraction. The plates were dried and the radioactivity in each well determined using a PerkinElmer TopCount NXT Microplate Scintillation Counter. HPLC radiochromatograms were reconstructed using LC-ARC data handling software.
Pharmacokinetic data were generated by non-compartmental analysis of plasma or whole blood versus time profiles using WinNonlin (version 4.1, Enterprise Edition). […]

[1] = radiochromatography, single oral 20-mg dose, mean ± SD

CCOc1cc([C@@H](CS(C)(=O)=O)N2C(=O)c3cccc(NC(C)=O)c3C2=O)ccc1OC [Apremilast, (+)-N-[2-[(lS)-1-(3-ethoxy-4-methoxyphenyl)-2-(methylsulfonyl)ethyl]-1,3-dioxo-2,3-dihydro-lH-isoindol-4-yl]acetamide]
Plasma (% AUC relative to TRA); share of circulating radioactivity (AUC0-t (unchanged drug or metabolite)/AUC0-48 (TRA) * 100%): 45% and 44.8% | Plasma exposure (AUC) relative to total radioactivity (based on radiochromatography): approximately 40% | % of dose excreted, faeces (faeces collected up to 96-h post-dose): 4 % of dose and 4.1 % of dose | half-life (human, plasma, radiochromatography, single oral 20-mg dose, mean ± SD, read-out: Plasma t½ (converted)): 7.1 ± 2.7 h | Tmax (male, human, plasma, radiochromatography, single oral 20-mg dose, median and range): 1.8 h | Plasma Cmax (plasma radioactivity concentrations and radiochromatography, single oral 20-mg dose, mean ± SD): 321±134 ngEq/mL | Plasma AUC0-t [1]: 2455±690 ngEq*h/mL | Plasma AUC0-∞ [1]: 2636±705 ngEq*h/mL | % of dose excreted, urine (urine collected up to 48-h post-dose): 2.8 % of dose
